Measurements as given in paper PMC9718554, “Discovery of a fragment hit compound targeting D-Ala:D-Ala ligase of bacterial peptidoglycan biosynthesis” (Journal of Enzyme Inhibition and Medicinal Chemistry, 2022).
Read-outs that look alike come from different tables or passages of the source.

Columns and labels:
[1] = Solubility at tested concentrations in the fragment library screening; assay type: physicochemical
Source text: (§1) Supplement IENZ_A_2149745_SM2502.zip/DDlB_CDR05_SI_20221103.xlsx, sheet "Fragment library screening" | column: Solubility at tested concentrations

[2] = molecular target: T1, E. coli DdlB enzyme (D-alanine:D-alanine ligase) (Escherichia coli, UniProt P07862); test: biochemical; conditions: read-out: DdlB RA; for remaining activity at 1800 µM: tested concentration 1.8 mM; for remaining activity at 2000 µM: tested concentration 2.0 mM; for remaining activity at 1700 µM: tested concentration 1.7 mM; for remaining activity at 2100 µM: tested concentration 2.1 mM; for remaining activity at 1900 µM: tested concentration 1.9 mM; for remaining activity at 2200 µM: tested concentration 2.2 mM; for remaining activity at 2300 µM: tested concentration 2.3 mM; for remaining activity at 2400 µM: tested concentration 2.4 mM
T1 construct: made in house; host or cells: E. coli

[3] = Solubility at tested concentrations in fragment library screening; assay type: physicochemical
Source text: as §1

[4] = Solubility at tested concentrations (fragment library screening); assay type: physicochemical
Source text: as §1

[5] = at the Tested concentration [mM]

Cc1cc(C)c2ccc(/C=N/O)nc2c1O [Compound 0422-0035]
Solubility at tested concentrations [1, 5]: not soluble

O=C1CSC(c2ccccc2)N1CCc1ccccc1 (centres unmarked) [Compound 1410-0151]
remaining activity at 1800 µM [2]: 134%
Solubility at tested concentrations ([1]; tested concentration 1.8 mM): not soluble

O=C1CSC(c2ccccc2)N1c1ccccc1 (centres unmarked) [Compound 2339-2195]
remaining activity at 2000 µM [2]: 103%
Solubility at tested concentrations ([1]; tested concentration 2.0 mM): not soluble

Cc1cccc2c(O)c(C(=O)O)cnc12 [Compound 4491-1619]
Solubility at tested concentrations [1, 5]: not soluble

COc1cccc(NC2=NS(=O)(=O)c3ccccc32)c1 [Compound 8005-1580]
remaining activity at 1700 µM ([2]; residual activity): 50%
Solubility at tested concentrations ([3]; tested concentration 1.7 mM): not soluble

CN1CCN(S(=O)(=O)c2cccc3cccnc23)CC1 [Compound 8006-7667]
remaining activity at 2100 µM ([2]; residual activity): 60%
Solubility at tested concentrations ([3]; tested concentration 2.1 mM): not soluble

OC1CCCc2c1[nH]c1ccc(Br)cc21 (centres unmarked) [Compound 8010-6263]
remaining activity at 1900 µM ([2]; residual activity): 29%
Solubility at tested concentrations ([3]; tested concentration 1.9 mM): not soluble

O=[N+]([O-])c1cc(Cl)c2cccnc2c1O [Compound 8011-4676]
remaining activity at 2200 µM ([2]; residual activity): 49%
Solubility at tested concentrations ([4]; tested concentration 2.2 mM): not soluble

CN(C(=O)c1cc[nH]n1)C1CC(C)(C)N(C)C(C)(C)C1 [Compound 8013-1135]
remaining activity at 2000 µM ([2]; residual activity): -1.26%
Solubility at tested concentrations ([3]; tested concentration 2.0 mM): not soluble

Cc1cc(C)c2c(=O)[nH]n(C3CCCCCC3)c2n1 [Compound 8016-0079]
remaining activity at 2300 µM [2]: 81%
Solubility at tested concentrations ([4]; tested concentration 2.3 mM): not soluble

O=[N+]([O-])c1cc(Cl)c(O)c2ncccc12 [Compound 8017-0599]
remaining activity at 2200 µM ([2]; residual activity): 55%
Solubility at tested concentrations ([4]; tested concentration 2.2 mM): not soluble

COc1cccc2c1ncc1c(=O)n3cccc(O)c3nc12 [Compound 8018-0164]
remaining activity at 1700 µM [2]: 72%
Solubility at tested concentrations ([4]; tested concentration 1.7 mM): not soluble

O=C1COc2ccccc2N1Cc1ccc2c(c1)OCO2 [Compound 8018-5756]
remaining activity at 1800 µM ([2]; residual activity): 103%
Solubility at tested concentrations ([3]; tested concentration 1.8 mM): not soluble

COc1ccc(-c2ncc(C(=O)O)c(=O)[nH]2)cc1OC [Compound 8020-2710]
remaining activity at 1800 µM ([2]; residual activity): 91%
Solubility at tested concentrations ([4]; tested concentration 1.8 mM): not soluble

COc1ccc(Cc2ccc(F)cc2)cc1B(O)O [Compound 8020-3675]
remaining activity at 1900 µM [2]: 52%
Solubility at tested concentrations ([1]; tested concentration 1.9 mM): not soluble

CCc1c(C)[nH]c(=O)c(C(=O)O)c1C#N [Compound 8020-6317]
Solubility at tested concentrations [1, 5]: not soluble

N#Cc1c2c([nH]c(=O)c1C(=O)O)CCCC2 [Compound 8020-6318]
remaining activity at 2300 µM ([2]; residual activity): 93%
Solubility at tested concentrations ([4]; tested concentration 2.3 mM): not soluble

Cc1cccc(CNC(=O)c2ccc3cccc(O)c3n2)c1 [Compound C066-5543]
remaining activity at 1700 µM ([2]; residual activity): 94%
Solubility at tested concentrations ([4]; tested concentration 1.7 mM): not soluble

O=C(O)c1nccnc1C(=O)Nc1cccc(Cl)c1 [Compound C612-0847]
remaining activity at 1800 µM ([2]; residual activity): 52%
Solubility at tested concentrations ([4]; tested concentration 1.8 mM): not soluble

O=C(O)c1nccnc1C(=O)Nc1ccc([N+](=O)[O-])cc1 [Compound C612-1047]
remaining activity at 1700 µM [2]: 38%
Solubility at tested concentrations ([1]; tested concentration 1.7 mM): not soluble

CCOc1ccc2c(c1)cc(C(=O)NC)n2C [Compound D291-1849]
remaining activity at 2600 µM ([2]; tested concentration 2.6 mM): 95%
Solubility at tested concentrations ([4]; tested concentration 2.6 mM): not soluble

O=S(=O)(c1c[nH]cn1)N1CCCC1c1cccc(F)c1 (centres unmarked) [Compound D399-0575]
Solubility at tested concentrations [1, 5]: not soluble

CC1CCN(S(=O)(=O)c2cnc(O)[nH]c2=O)CC1 [Compound D668-0109]
remaining activity at 1800 µM ([2]; residual activity): 97%
Solubility at tested concentrations ([4]; tested concentration 1.8 mM): not soluble

COc1ccc(-c2ccc(C(=O)O)c(=O)[nH]2)cc1 [Compound D724-1039]
remaining activity at 2000 µM ([2]; residual activity): 76%
Solubility at tested concentrations ([4]; tested concentration 2.0 mM): not soluble

O=C(O)c1ccc(-c2ccccc2)nc1O [Compound D724-1054]
Solubility at tested concentrations [1, 5]: not soluble

CC1=C(c2cccc(Cl)c2)S(=O)(=O)N=C1NC(C)C [Compound E013-2266]
Solubility at tested concentrations [1, 5]: not soluble

COCCNc1c(-c2ccc(C)cc2)c(=O)c1=O [Compound E470-0131]
remaining activity at 2000 µM [2]: 78%
Solubility at tested concentrations ([4]; tested concentration 2.0 mM): not soluble

Cc1ccc(-c2c(N(C)c3ccc(C)cc3)c(=O)c2=O)cc1 [Compound E470-0191]
remaining activity at 1700 µM [2]: 73%
Solubility at tested concentrations ([1]; tested concentration 1.7 mM): not soluble

CC1CCN(c2c(-c3ccccc3)c(=O)c2=O)CC1 [Compound E470-0346]
remaining activity at 2000 µM [2]: 98%
Solubility at tested concentrations ([1]; tested concentration 2.0 mM): not soluble

O=c1c(NCC2CCCO2)c(-c2ccccc2)c1=O (centres unmarked) [Compound E470-0384]
remaining activity at 1900 µM [2]: 81%
Solubility at tested concentrations ([1]; tested concentration 1.9 mM): not soluble

CCC(C)(C)Nc1c(-c2ccccc2)c(=O)c1=O [Compound E470-0411]
remaining activity at 2100 µM [2]: 48%
Solubility at tested concentrations ([4]; tested concentration 2.1 mM): not soluble

CC1Cc2ccccc2N1c1c(-c2ccccc2)c(=O)c1=O (centres unmarked) [Compound E470-0446]
remaining activity at 1700 µM [2]: 2.16%
Solubility at tested concentrations ([1]; tested concentration 1.7 mM): not soluble

O=c1c(NCc2ccco2)c(-c2ccccc2)c1=O [Compound E470-0461]
remaining activity at 2000 µM [2]: 137%
Solubility at tested concentrations ([1]; tested concentration 2.0 mM): not soluble

Cc1cccc(Nc2c(-c3ccccc3)c(=O)c2=O)c1 [Compound E470-0476]
remaining activity at 1900 µM [2]: 43%
Solubility at tested concentrations ([1]; tested concentration 1.9 mM): not soluble

O=c1c(NCCN2CCCCCC2)c(-c2ccccc2)c1=O [Compound E470-0490]
remaining activity at 1700 µM [2]: 88%
Solubility at tested concentrations ([1]; tested concentration 1.7 mM): not soluble

CCCNc1c(-c2ccc(C(C)C)cc2)c(=O)c1=O [Compound E511-0830]
remaining activity at 1900 µM [2]: 101%
Solubility at tested concentrations ([1]; tested concentration 1.9 mM): not soluble

Cc1cc2nc(COC(=O)c3ccccc3)cc(=O)n2o1 [Compound G265-0746]
remaining activity at 1800 µM [2]: -1%
Solubility at tested concentrations ([1]; tested concentration 1.8 mM): not soluble

COc1ccccc1NC(=O)NC1COc2ccccc2C1 (centres unmarked) [Compound G765-0207]
Solubility at tested concentrations [1, 5]: not soluble

O=C(NC1CCCCC1)c1ccc2cccc(O)c2n1 [Compound G900-0104]
remaining activity at 1800 µM ([2]; residual activity): 80%
Solubility at tested concentrations ([4]; tested concentration 1.8 mM): not soluble

CCc1cccc(NC(=O)c2ccc3cccc(O)c3n2)c1 [Compound G900-0169]
remaining activity at 1700 µM [2]: 69%
Solubility at tested concentrations ([4]; tested concentration 1.7 mM): not soluble

Cc1cc(C)cc(NC(=O)c2ccc3cccc(O)c3n2)c1 [Compound G900-0230]
remaining activity at 1700 µM [2]: 92%
Solubility at tested concentrations ([4]; tested concentration 1.7 mM): not soluble

Cc1cc(C2CCCN2Cc2ccccc2O)on1 (centres unmarked) [Compound J006-2498]
remaining activity at 2300 µM [2]: 90%
Solubility at tested concentrations ([4]; tested concentration 2.3 mM): not soluble

O=C(Cc1c[nH]c2ncccc12)NCC1CCCCC1 [Compound M508-0609]
remaining activity at 1800 µM ([2]; residual activity): 92%
Solubility at tested concentrations ([4]; tested concentration 1.8 mM): not soluble

O=C(O)c1cc(-c2ccc3ccccc3c2)[nH]n1 [Compound R052-2028]
remaining activity at 2100 µM [2]: 50%
Solubility at tested concentrations ([1]; tested concentration 2.1 mM): not soluble

Oc1cc(-c2ccccc2)cc2c1nnc1ncnn12 [Compound Y021-2954]
remaining activity at 1900 µM ([2]; residual activity): 79%
Solubility at tested concentrations ([4]; tested concentration 1.9 mM): not soluble

Oc1cccc2c1nnc1nc(-c3cccnc3)nn12 [Compound Y021-2955]
remaining activity at 1900 µM ([2]; residual activity): 45%
Solubility at tested concentrations ([4]; tested concentration 1.9 mM): not soluble

Cc1cc(C)c(S(=O)(=O)N(C)C2CCCCC2)c(C)c1 [Compound Y030-0169]
Solubility at tested concentrations [1, 5]: not soluble

O=C(O)c1cnc2ccc(F)cc2c1O [Compound Y042-3098]
remaining activity at 2400 µM [2]: 53%
Solubility at tested concentrations ([1]; tested concentration 2.4 mM): not soluble

O=C(O)c1cnc2cc(Cl)ccc2c1O [Compound Y042-3116]
remaining activity at 2200 µM [2]: 44%
Solubility at tested concentrations ([1]; tested concentration 2.2 mM): not soluble

O=C(O)c1cnc2c(OC(F)(F)F)cccc2c1O [Compound Y042-3118]
remaining activity at 1800 µM ([2]; residual activity): 88%
Solubility at tested concentrations ([4]; tested concentration 1.8 mM): not soluble

CCCCc1ccc2ncc(C(=O)O)c(O)c2c1 [Compound Y044-2907]
remaining activity at 2000 µM [2]: 85%
Solubility at tested concentrations ([1]; tested concentration 2.0 mM): not soluble

CC(C)c1ccc(C(=O)Nc2nnc[nH]2)cc1 [Compound Y200-5752]
remaining activity at 2200 µM ([2]; residual activity): 52%
Solubility at tested concentrations ([4]; tested concentration 2.2 mM): not soluble

NS(=O)(=O)c1ccc(NC(=O)C2CCCC2)cc1 [Compound Y205-5953]
remaining activity at 1900 µM [2]: 62%
Solubility at tested concentrations ([1]; tested concentration 1.9 mM): not soluble

Cc1cccc(CC(=O)Nc2cccc(C(=O)O)c2)c1 [Compound Y206-6127]
remaining activity at 1900 µM [2]: 58%
Solubility at tested concentrations ([1]; tested concentration 1.9 mM): not soluble

Cc1ccc(CS(=O)(=O)N2CCCCC2)cc1 [Compound Y300-3037]
remaining activity at 2400 µM [2]: 88%
Solubility at tested concentrations ([4]; tested concentration 2.4 mM): not soluble

c1ccc(-c2nnc(CC34CC5CC(CC(C5)C3)C4)o2)nc1 [Compound Y502-6922]
Solubility at tested concentrations [1, 5]: not soluble

O=C(O)c1cnn2c(-c3ccco3)ccnc12 [Compound Y504-8728]
remaining activity at 2200 µM [2]: 56%
Solubility at tested concentrations ([1]; tested concentration 2.2 mM): not soluble

Cc1cc(N)nn1CC(=O)O [Compound Y504-8763]
remaining activity at 3200 µM ([2]; tested concentration 3.2 mM): 57%
Solubility at tested concentrations ([4]; tested concentration 3.2 mM): not soluble
